Reference: US10307410B2, “Mcl-1 modulating compounds for cancer treatment” (CENTRE REGIONAL DE LUTTE CONTRE LE CANCER FRANCOIS BACLESSE, priority 2014, dated 2019)

Tests used:
[1] = tested on: SKOV3 chemoresistant ovarian cancer cells; assay: Real-time cellular activity by impedancemetry (xCELLigence); assay type: cell-based, human; details: SKOV3, 25 μM Pyridoclax + 5 μM ABT-737
Protocol: (§1) FIG. 4 represents the effect of the association of Pyridoclax with ABT-737 on chemoresistant ovarian cancer cells IGROV1-R10 (top) and SKOV3 (bottom). Cells were concomitantly (A, E) or sequentially (B) exposed to 25 μM Pyridoclax and 5 μM ABT-737, and cellular effects were assessed either longitudinally (A, B, E) or after 24 h (C, D, F). [A, B, E] real time cellular activity assessed by impedancmetry (xCELLigence technology), after concomitant exposure (A, E) or sequential exposure (B; 24 h Pyridoclax, then ABT-737). [C]: Cellular morphology and DNA content histograms after a 24 h concomitant exposure. [D and F]: PARP and caspase 3 cleavage after a 24 h concomitant exposure.
(§2) Compound-mediated cytotoxicity was monitored using Real-Time Cell Analyzer multi-plate (RTCA MP) Instrument, xCELLigence System (Roche Applied Science, Mannheim, Germany). This system monitors cellular events in real time measuring electrical impedance across interdigitated micro-electrodes integrated on the bottom of tissue culture E-plates View (Roche). […] Thus, this index reflects changes in cell viability as described by Ke et al. (2011, Methods Mol Biol 740, 33-43). […] Impedance was continuously measured until the end of the treatment. Standard deviations of well replicates were analyzed with the RTCA Software.

[2] = tested on: IGROV1-R10 ovarian cancer cells; assay: Cellular morphology / cell detachment, molecule alone or with Bcl-xL targeting siRNA; assay type: cell-based
Protocol: (§3) Exponentially growing cells were transfected by siRNA as described below, and after 48 h, cells were continuously exposed to (Het)aromatic oligosystems (10, 25 or 50 μM) dissolved in DMSO (<0.1% of total volume) for 4 to 24 supplementary hours.
(§4) Cells were seeded in 25 cm^2 flasks the day before to reach 30-50% confluency at the time of transfection. The transfection INTERFERin™ reagent (Polyplus Transfection, Strasbourg. France) was added to siRNA diluted in Opti-MEM® reduced serum medium (Invitrogen, Cergy-Pontoise, France) and complexes formation was allowed to proceed for 15 min at RT before being applied to cells. The final siRNA concentration in the flasks was 20 nM.

[3] = tested on: IGROV1-R10 ovarian cancer cells; assay: Annexin V/propidium iodide flow cytometry; assay type: cell-based; details: IGROV1-R10, 10 nM siXL1 48 h then 25 μM Pyridoclax 24 h
Protocol: (§5) Adherent and floating cells were pooled, washed with 1×PBS and centrifuged at 200 g for 5 min before staining by Annexin V, propidium iodide or both, as recommended by the manufacturer (Roche Diagnostic, Indianapolis, USA). Briefly, 100 μl of Annexin V—Flit or propidium iodide or both were added on the cells pellet (10^6 cells) and incubated 15 minutes at room temperature in obscurity. 500 μl of sample buffer was then added on the suspensions that were thereafter analyzed using a Gallios flow cytometer (Beckman Coulter, Roissy, France) and cell cycle distribution was determined using Kaluza acquisition software (Beckman Coulter).

[4] = tested on: IGROV1-R10 ovarian cancer cells; assay: Trypan blue exclusion assay; assay type: cell-based; details: IGROV1-R10, Pyridoclax associated to siXL1
[5] = tested on: IGROV1-R10 ovarian cancer cells; assay: Nuclear morphology after DAPI staining; assay type: cell-based; parameters: key to Apoptotic nuclear features: +: a few condensed or fragmented nuclei are observable after DAPI staining; ++: numerous condensed or fragmented nuclei are observable after DAPI staining (20-50%); +++: most of the nuclei are condensed or fragmented
Protocol: as §3, §4
After treatment, both detached and adherent cells were pooled after trypsinization, applied to a polylysine-coated glass slide by cytocentrifugation and fixed with a solution of ethanol/chloroform/acetic acid (6:3:1). The preparations were then incubated for 15 min at room temperature with 1 μg/ml DAPI solution (Boehringer Mannheim-Roche, Mannheim, Germany), washed in distillated water, mounted under a coverslip in Mowiol (Calbiochem) and analyzed under a fluorescence microscope (BX51, Olympus, Rungis, France).
Cells were fixed with 2.5% glutaraldehyde in PBS buffer, included in agar, rinsed in Sorensen's buffer, post-fixed in osmium tetroxide 1% in Sorensen's buffer, deshydrated in ethanol and embedded in EPON resin. Ultrathin sections were cut and stained with uranyl acetate and lead citrate and examined using a JEOL1011 transmission electron microscope.

[6] = tested on: IGROV1-R10 chemoresistant ovarian cancer cells; assay: Real-time cellular activity by impedancemetry (xCELLigence); assay type: cell-based; details: IGROV1-R10, 25 μM Pyridoclax + 5 μM ABT-737
Protocol: as §1, §2

[7] = tested on: IGROV1-R10 ovarian cancer cells; assay: DNA content histograms (sub-G1) by flow cytometry; assay type: cell-based
Protocol: as §3
as §4, with “The final siRNA concentration in the flasks was 20 nM.” left out
as §5

[8] = tested on: SKOV3 chemoresistant ovarian cancer cells; assay: Pyridoclax / ABT-737 association, apoptotic cell death; assay type: cell-based, human
Protocol: as §1, §5
Cells were rinsed with ice-cold PBS, suspended in a lysis buffer [RIPA:NaCl 150 mM, Tris (pH 8) 50 mM, Triton X100 1%, PMSF 4 mM, EDTA 5 mM, NaF 10 mM, NaPPi 10 mM, Na3OV4 1 mM, aprotinin 0.5 μl/ml and 4.6 ml ultra pure water] and incubated on ice for 30 minutes. Lysates were collected after centrifugation (13200 g, 10 min, 4° C.) and protein concentrations were determined using the Bradford assay (Bio-Rad, Hercules, USA). 20 μg of protein were separated by SDS-PAGE on a 4-12% gradient polyacrylamide gel (Invitrogen, Cergy-Pontoise, France) and transferred to Hybond-PVDF membranes (Amersham, Orsay, France). […]

[9] = IGROV1-R10, Pyridoclax associated to siXL1

SMILES: Cc1cc(-c2ncc(-c3cccnc3)cc2/C=C/c2ccccc2)cnc1-c1cccnc1 [Pyridoclax, 5,6′-di(pyridin-3-yl)-5′-methyl-3-((E)-styryl)-2,3′-bipyridine]
- cellular activity (impedancemetry) [1]: drastically decreased
- effects in response to 10 μM ([2]; IGROV1-R10, Pyridoclax 10 μM associated to siXL1 (data not shown)): also observed in a lower extend
- Cell detachment [2, 9]: strong cell detachment
- concentration at which effects are optimal [2, 9]: 25 µM
- cell death, agent on its own ([2]; IGROV1-R10, single agent): neither Pyridoclax nor the Bcl-xL targeting siRNA (siXL1) induced massive cell death on their own
- fraction of annexin V positive cells [3]: 60%
- number of viable cells [4]: drastic decrease of the number of viable cells
- nuclear morphology (DAPI staining and electron microscopy) [5, 9]: nuclear condensations and fragmentations
- Apoptotic nuclear features ([5]; Molecule + Bcl-xL targeting siRNA, DAPI staining): +++
- cellular activity (impedancemetry) [6]: drastically decreased
- sub-G1 Peak on the DNA content histogram ([7]; IGROV1-R10, 10 nM siXL1 48 h then 25 μM Pyridoclax 24 h): over 50%
- time after beginning of exposure at which apoptosis was observed ([7]; IGROV1-R10, siXL1 + Pyridoclax): 2 to 4 h
- events in sub-G1 fraction ([7]; IGROV1-R10, siXL1 + Pyridoclax, after 4 h exposure): 37%
- Sub-G1 (%) ([7]; Molecule + Bcl-xL targeting siRNA): 53.6%
- cell death, combination with ABT-737 ([8]; SKOV3, 25 μM Pyridoclax + 5 μM ABT-737): massive apoptotic cell death
- cell death as single agent ([8]; SKOV3, single agent): neither ABT-737 nor Pyridoclax induced cell death as single agents
